Reference: ChEMBL document CHEMBL3885881, “DrugMatrix”

Species on record: Rattus norvegicus
Assay: DrugMatrix - Regimen: Daily Repeat
Format: toxicity, organism-based, Sprague-Dawley
Parameters: regimen Daily Repeat, gender Male, age 6-8 weeks
Settings: in vivo, po, route oral GAVAGE, vehicle .5 % CMC; for BASOPHIL / EOSINOPHIL / ERYTHROCYTE COUNT / HEMATOCRIT / HEMOGLOBIN / LEUKOCYTE COUNT / LYMPHOCYTE / MEAN CORPUSCULAR HEMOGLOBIN / MEAN CORPUSCULAR HEMOGLOBIN CONCENTRATION / MEAN CORPUSCULAR VOLUME / MONOCYTE / NEUTROPHIL / PLATELET COUNT: tissue Blood; for ALANINE AMINOTRANSFERASE / ALBUMIN / ALKALINE PHOSPHATASE / ASPARTATE AMINOTRANSFERASE / BLOOD UREA NITROGEN / CHLORIDE / CHOLESTEROL / CREATINE PHOSPHOKINASE / CREATININE / GLUCOSE / PHOSPHORUS / POTASSIUM / SODIUM / TOTAL BILIRUBIN / TOTAL PROTEIN: tissue Plasma
[1] = 0 mg/kg, 72 h, dose level Control, time 3 day
[2] = 0 mg/kg, 120 h, dose level Control, time 5 day
[3] = 38 mg/kg, 72 h, dose level Low, time 3 day
[4] = 38 mg/kg, 120 h, dose level Low, time 5 day
[5] = 269 mg/kg, 72 h, dose level High, time 3 day
[6] = 269 mg/kg, 120 h, dose level High, time 5 day

CCCNC(=O)NS(=O)(=O)c1ccc(Cl)cc1 [CHLORPROPAMIDE]
BASOPHIL [1]: 0%
EOSINOPHIL [1]: 0.33%
ERYTHROCYTE COUNT [1]: 6.2 x10E6/uL
HEMATOCRIT [1]: 38.08%
HEMOGLOBIN [1]: 14.92 G/DL
LEUKOCYTE COUNT [1]: 11.13 x10E3/uL
LYMPHOCYTE [1]: 76%
MEAN CORPUSCULAR HEMOGLOBIN [1]: 24.1 pg
MEAN CORPUSCULAR HEMOGLOBIN CONCENTRATION [1]: 39.17 G/DL
MEAN CORPUSCULAR VOLUME [1]: 61.48 fL
MONOCYTE [1]: 3.83%
NEUTROPHIL [1]: 19.83%
PLATELET COUNT [1]: 1327.5 x10E3/uL
ALANINE AMINOTRANSFERASE [1]: 40.17 u/L
ALBUMIN [1]: 4.07 G/DL
ALKALINE PHOSPHATASE [1]: 372 u/L
ASPARTATE AMINOTRANSFERASE [1]: 67.17 u/L
BLOOD UREA NITROGEN [1]: 18.83 mg/dL
CHLORIDE [1]: 105.17 MEQ/L
CHOLESTEROL [1]: 78.17 mg/dL
CREATINE PHOSPHOKINASE [1]: 149.17 u/L
CREATININE [1]: 0.57 mg/dL
GLUCOSE [1]: 185.17 mg/dL
PHOSPHORUS [1]: 11.43 mg/dL
POTASSIUM [1]: 6.78 MEQ/L
SODIUM [1]: 152.83 MEQ/L
TOTAL BILIRUBIN [1]: 0.4 mg/dL
TOTAL PROTEIN [1]: 6.87 G/DL
BASOPHIL [2]: 0%
EOSINOPHIL [2]: 0%
ERYTHROCYTE COUNT [2]: 6.05 x10E6/uL
HEMATOCRIT [2]: 36.55%
HEMOGLOBIN [2]: 14.7 G/DL
LEUKOCYTE COUNT [2]: 11.8 x10E3/uL
LYMPHOCYTE [2]: 86.83%
MEAN CORPUSCULAR HEMOGLOBIN [2]: 24.37 pg
MEAN CORPUSCULAR HEMOGLOBIN CONCENTRATION [2]: 40.32 G/DL
MEAN CORPUSCULAR VOLUME [2]: 60.47 fL
MONOCYTE [2]: 0.83%
NEUTROPHIL [2]: 12.33%
PLATELET COUNT [2]: 1177 x10E3/uL
ALANINE AMINOTRANSFERASE [2]: 41.83 u/L
ALBUMIN [2]: 3.75 G/DL
ALKALINE PHOSPHATASE [2]: 377.5 u/L
ASPARTATE AMINOTRANSFERASE [2]: 60.83 u/L
BLOOD UREA NITROGEN [2]: 16 mg/dL
CHLORIDE [2]: 105.67 MEQ/L
CHOLESTEROL [2]: 67.83 mg/dL
CREATINE PHOSPHOKINASE [2]: 120.33 u/L
CREATININE [2]: 0.6 mg/dL
GLUCOSE [2]: 167.67 mg/dL
PHOSPHORUS [2]: 10.03 mg/dL
POTASSIUM [2]: 6.68 MEQ/L
SODIUM [2]: 150.5 MEQ/L
TOTAL BILIRUBIN [2]: 0.57 mg/dL
TOTAL PROTEIN [2]: 6.25 G/DL
BASOPHIL [3]: 0%
EOSINOPHIL [3]: 0%
ERYTHROCYTE COUNT [3]: 5.72 x10E6/uL
HEMATOCRIT [3]: 35.8%
HEMOGLOBIN [3]: 13.93 G/DL
LEUKOCYTE COUNT [3]: 12.2 x10E3/uL
LYMPHOCYTE [3]: 81%
MEAN CORPUSCULAR HEMOGLOBIN [3]: 24.4 pg
MEAN CORPUSCULAR HEMOGLOBIN CONCENTRATION [3]: 38.9 G/DL
MEAN CORPUSCULAR VOLUME [3]: 62.73 fL
MONOCYTE [3]: 1.67%
NEUTROPHIL [3]: 17.33%
PLATELET COUNT [3]: 1327 x10E3/uL
ALANINE AMINOTRANSFERASE [3]: 39.33 u/L
ALBUMIN [3]: 3.73 G/DL
ALKALINE PHOSPHATASE [3]: 318.67 u/L
ASPARTATE AMINOTRANSFERASE [3]: 61.33 u/L
BLOOD UREA NITROGEN [3]: 14.33 mg/dL
CHLORIDE [3]: 105.67 MEQ/L
CHOLESTEROL [3]: 77.33 mg/dL
CREATINE PHOSPHOKINASE [3]: 126.33 u/L
CREATININE [3]: 0.57 mg/dL
GLUCOSE [3]: 180.33 mg/dL
PHOSPHORUS [3]: 11.27 mg/dL
POTASSIUM [3]: 6.7 MEQ/L
SODIUM [3]: 151.33 MEQ/L
TOTAL BILIRUBIN [3]: 0.33 mg/dL
TOTAL PROTEIN [3]: 6.07 G/DL
BASOPHIL [4]: 0%
EOSINOPHIL [4]: 0.33%
ERYTHROCYTE COUNT [4]: 6.28 x10E6/uL
HEMATOCRIT [4]: 38.47%
HEMOGLOBIN [4]: 15 G/DL
LEUKOCYTE COUNT [4]: 16.07 x10E3/uL
LYMPHOCYTE [4]: 86.67%
MEAN CORPUSCULAR HEMOGLOBIN [4]: 23.93 pg
MEAN CORPUSCULAR HEMOGLOBIN CONCENTRATION [4]: 39 G/DL
MEAN CORPUSCULAR VOLUME [4]: 61.4 fL
MONOCYTE [4]: 1.67%
NEUTROPHIL [4]: 11.33%
PLATELET COUNT [4]: 1190.33 x10E3/uL
ALANINE AMINOTRANSFERASE [4]: 35.67 u/L
ALBUMIN [4]: 3.7 G/DL
ALKALINE PHOSPHATASE [4]: 350 u/L
ASPARTATE AMINOTRANSFERASE [4]: 61.33 u/L
BLOOD UREA NITROGEN [4]: 14.33 mg/dL
CHLORIDE [4]: 106.33 MEQ/L
CHOLESTEROL [4]: 65 mg/dL
CREATINE PHOSPHOKINASE [4]: 140.67 u/L
CREATININE [4]: 0.6 mg/dL
GLUCOSE [4]: 178 mg/dL
PHOSPHORUS [4]: 11 mg/dL
POTASSIUM [4]: 6.43 MEQ/L
SODIUM [4]: 149.33 MEQ/L
TOTAL BILIRUBIN [4]: 0.37 mg/dL
TOTAL PROTEIN [4]: 6.1 G/DL
BASOPHIL [5]: 0%
EOSINOPHIL [5]: 0.33%
ERYTHROCYTE COUNT [5]: 6.04 x10E6/uL
HEMATOCRIT [5]: 37%
HEMOGLOBIN [5]: 14.33 G/DL
LEUKOCYTE COUNT [5]: 8.83 x10E3/uL
LYMPHOCYTE [5]: 83.67%
MEAN CORPUSCULAR HEMOGLOBIN [5]: 23.93 pg
MEAN CORPUSCULAR HEMOGLOBIN CONCENTRATION [5]: 38.77 G/DL
MEAN CORPUSCULAR VOLUME [5]: 61.6 fL
MONOCYTE [5]: 2%
NEUTROPHIL [5]: 14%
PLATELET COUNT [5]: 1429 x10E3/uL
ALANINE AMINOTRANSFERASE [5]: 26 u/L
ALBUMIN [5]: 3.83 G/DL
ALKALINE PHOSPHATASE [5]: 312 u/L
ASPARTATE AMINOTRANSFERASE [5]: 48.33 u/L
BLOOD UREA NITROGEN [5]: 17 mg/dL
CHLORIDE [5]: 109.33 MEQ/L
CHOLESTEROL [5]: 73 mg/dL
CREATINE PHOSPHOKINASE [5]: 142 u/L
CREATININE [5]: 0.53 mg/dL
GLUCOSE [5]: 163.33 mg/dL
PHOSPHORUS [5]: 9.83 mg/dL
POTASSIUM [5]: 5.8 MEQ/L
SODIUM [5]: 151.33 MEQ/L
TOTAL BILIRUBIN [5]: 0.17 mg/dL
TOTAL PROTEIN [5]: 6.3 G/DL
BASOPHIL [6]: 0%
EOSINOPHIL [6]: 0%
ERYTHROCYTE COUNT [6]: 5.62 x10E6/uL
HEMATOCRIT [6]: 33.9%
HEMOGLOBIN [6]: 14.07 G/DL
LEUKOCYTE COUNT [6]: 10.7 x10E3/uL
LYMPHOCYTE [6]: 76.67%
MEAN CORPUSCULAR HEMOGLOBIN [6]: 25.07 pg
MEAN CORPUSCULAR HEMOGLOBIN CONCENTRATION [6]: 41.53 G/DL
MEAN CORPUSCULAR VOLUME [6]: 60.37 fL
MONOCYTE [6]: 2.33%
NEUTROPHIL [6]: 21%
PLATELET COUNT [6]: 995.67 x10E3/uL
ALANINE AMINOTRANSFERASE [6]: 34.67 u/L
ALBUMIN [6]: 3.7 G/DL
ALKALINE PHOSPHATASE [6]: 315.33 u/L
ASPARTATE AMINOTRANSFERASE [6]: 55.33 u/L
BLOOD UREA NITROGEN [6]: 16.33 mg/dL
CHLORIDE [6]: 112.33 MEQ/L
CHOLESTEROL [6]: 71.33 mg/dL
CREATINE PHOSPHOKINASE [6]: 127.33 u/L
CREATININE [6]: 0.6 mg/dL
GLUCOSE [6]: 173.33 mg/dL
PHOSPHORUS [6]: 10.27 mg/dL
POTASSIUM [6]: 5.83 MEQ/L
SODIUM [6]: 155 MEQ/L
TOTAL BILIRUBIN [6]: 0.23 mg/dL
TOTAL PROTEIN [6]: 6.1 G/DL
